In patent US10759826B2, “15β-substituted estrone derivatives as selective inhibitors of 17β-hydroxysteroid-dehydrogenases, method of preparation and use thereof” (USTAV ORGANICKE CHEMIE A BIOCHEMIE AV CR, V.V.I., priority 2016, dated 2020):
pIC50: −log10 of the molar value.

Experiments:
[1] = target: T1, human 17βHSD type 1 (Homo sapiens, UniProt P14061); experiment: Inhibition of recombinant 17βHSD type 1, tritium-labeled substrate conversion; type: biochemical; details: for inhibition at 0.1 µM: 0.1 μmol · l^−1 test substance; for inhibition at 0.1 µM / inhibition at 1 µM: read-out: % of inhibition of human 17βHSD1; for inhibition at 1 µM: 1 μmol · l^−1 test substance; for pIC50: read-out: 17βHSD1 IC50
T1 construct: made in house; expressing system suspended in buffer, not purified
T1 sequence (P14061 1-328): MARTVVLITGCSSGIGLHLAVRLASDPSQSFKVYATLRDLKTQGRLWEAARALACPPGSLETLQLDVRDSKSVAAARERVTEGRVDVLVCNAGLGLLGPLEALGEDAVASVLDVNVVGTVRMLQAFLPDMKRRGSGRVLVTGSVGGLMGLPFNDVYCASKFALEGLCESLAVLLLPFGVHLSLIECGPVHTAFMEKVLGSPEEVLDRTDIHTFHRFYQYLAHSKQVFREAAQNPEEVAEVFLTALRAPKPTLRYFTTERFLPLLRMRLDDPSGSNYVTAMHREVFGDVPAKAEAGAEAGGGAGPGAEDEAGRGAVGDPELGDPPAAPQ
Protocol: (§1) The inhibitory activity of the test substances was determined for individual isoenzymes from the 17βHSD family, specifically these were the types 1, 2, 3, 4, 5 and 7. Escherichia coli and mammalian cells expression systems were used for recombinant expression of individual isozymes of human 17βHSD. Only in the case of 17HSD5 the enzyme was partially purified and supernatant obtained by centrifugation of the bacterial lysate was used for testing. Systems expressing specific 17βHSD type were suspended in a reaction buffer and incubated with tritium-labeled substrates and respective cofactors at 37° C. in two parallel tests: the control arrangement (DMSO without the inhibitor) and the test arrangement (DMSO with the inhibitor). DMSO serves as a negative control in this case. After 20-30% of the substrate was converted by the activity of the enzyme to the product in a control test, both tests were terminated. Substrate and product from the test arrangement were isolated by SPE (solid phase extraction), and then separated by reverse phase HPLC. Substrate conversion was determined by integration of the signals of the substrate and product, and was expressed in %. For the purposes of the subsequent calculation of enzyme inhibition, the conversion of the control test was designated as 0% inhibition. All tests were performed in triplicates. IC50 values were subsequently determined by a standard method using the “One Ligand Binding” model of SigmaPlot kinetics module (Schustera et. al. J. Ster. Biochem. Mol. Biol. 2011, 125, 148; Möller et. al. Biioorg. Med. Chem. Lett. 2009, 19, 6740; Möller et. al. PLoS One, 2010, 5, 6, e10969).

[2] = target: T2, human 17βHSD type 5 (Homo sapiens, UniProt P42330); experiment: Inhibition of recombinant 17βHSD type 5, tritium-labeled substrate conversion; type: biochemical; details: 1 μmol · l^−1 test substance
T2 construct: made in house; host or cells: bacteria (Escherichia coli); supernatant of the lysate
T2 sequence (P42330 1-323): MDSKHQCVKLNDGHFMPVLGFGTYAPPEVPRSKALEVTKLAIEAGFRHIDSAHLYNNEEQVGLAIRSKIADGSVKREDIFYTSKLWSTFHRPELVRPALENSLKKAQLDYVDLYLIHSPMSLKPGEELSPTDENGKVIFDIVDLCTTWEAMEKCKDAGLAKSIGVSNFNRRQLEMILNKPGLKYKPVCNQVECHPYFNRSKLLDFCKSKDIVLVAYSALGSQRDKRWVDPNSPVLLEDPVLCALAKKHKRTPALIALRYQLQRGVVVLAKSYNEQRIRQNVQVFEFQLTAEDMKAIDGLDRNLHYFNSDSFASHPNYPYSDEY
Protocol: as §1

[3] = target: T3, estrogen receptor α (ERα) (Homo sapiens, UniProt P03372); experiment: ERα luciferase reporter assay in U2OS cells; type: cell-based; details: for ER antagonism in words: testing range 10 μmol·l^−1 to 1 nmol·l^−1
T3 construct: expressed in transfected cells
T3 sequence (P03372 1-595): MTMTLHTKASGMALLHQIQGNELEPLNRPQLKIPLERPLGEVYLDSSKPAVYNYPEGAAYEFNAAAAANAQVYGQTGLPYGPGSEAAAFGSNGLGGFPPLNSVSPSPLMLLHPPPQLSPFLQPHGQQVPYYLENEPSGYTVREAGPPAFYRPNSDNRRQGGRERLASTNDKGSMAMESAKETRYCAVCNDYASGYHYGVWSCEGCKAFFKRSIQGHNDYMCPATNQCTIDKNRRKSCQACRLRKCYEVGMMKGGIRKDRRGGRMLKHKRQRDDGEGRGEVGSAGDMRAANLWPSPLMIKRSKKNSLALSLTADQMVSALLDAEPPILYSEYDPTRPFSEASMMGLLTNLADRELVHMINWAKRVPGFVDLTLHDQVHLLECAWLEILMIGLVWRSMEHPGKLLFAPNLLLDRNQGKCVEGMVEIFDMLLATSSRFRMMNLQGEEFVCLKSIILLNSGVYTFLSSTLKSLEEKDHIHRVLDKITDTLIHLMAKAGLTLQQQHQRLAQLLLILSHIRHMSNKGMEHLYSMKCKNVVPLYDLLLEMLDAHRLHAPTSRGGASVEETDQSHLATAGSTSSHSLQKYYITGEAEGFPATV

[4] = tested on: CEM; experiment: MTT cytotoxicity assay, CEM; type: cell-based; details: Homo sapiens, CCRF-CEM
Description: (§2) Compounds 5, 6, 7, 9, 14 and 15 were used for evaluation of antitumor activity. MTT cytotoxicity assay was used in vitro on cell lines derived from normal tissues and from tumors. Specifically, these were the K562 line (human myeloid leukemia), K562-Tax (human myeloid leukemia resistant to taxol and overexpressing PgP protein for multidrug resistance), CEM (T-lymphoblastic leukemia), CEM-DNR bulk (T-lymphoblastic leukemia resistant doxorubicin, lacking the expression of the target gene for inhibitors of topoisomerase II alpha), A549 line (human lung adenocarcinoma), HCT116p53 wt (human colon cancer), HCT116p53−/− (human colon cancer, mutant p53), U2OS line of human osteosarcoma and two fibroblast lines MRC5 and BJ as examples of non-tumor cells. Expression characteristics, profiles of susceptibility to classical antitumor drugs and methodology of the MTT cytotoxicity assay were repeatedly published (e.g. Noskova et al. Neoplasma 2002, 49, 418; S̆arek et. al. J. Med. Chem. 2003, 46, 25, 5402).

[5] = tested on: CEM-DNR-bulk; experiment: MTT cytotoxicity assay, CEM-DNR-bulk; type: cell-based
Description: as §2

[6] = tested on: K562; experiment: MTT cytotoxicity assay, K562; type: cell-based; details: Homo sapiens
Description: as §2

[7] = tested on: K562-Tax; experiment: MTT cytotoxicity assay, K562-Tax; type: cell-based; details: Homo sapiens
Description: as §2

[8] = tested on: A549; experiment: MTT cytotoxicity assay, A549; type: cell-based; details: Homo sapiens
Description: as §2

[9] = tested on: HCT116p53 wt; experiment: MTT cytotoxicity assay, HCT116p53 wt; type: cell-based; details: Homo sapiens
Description: as §2

[10] = tested on: HCT116p53-/-; experiment: MTT cytotoxicity assay, HCT116p53-/-; type: cell-based; details: Homo sapiens
Description: as §2

[11] = tested on: U2OS; experiment: MTT cytotoxicity assay, U2OS; type: cell-based; details: Homo sapiens
Description: as §2

[12] = tested on: BJ; experiment: MTT cytotoxicity assay, BJ fibroblasts; type: cell-based; details: Homo sapiens, non-tumor fibroblasts
Description: as §2

[13] = tested on: MRCS; experiment: MTT cytotoxicity assay, MRC5 fibroblasts; type: cell-based; details: Homo sapiens, Fibroblast, non-tumor fibroblasts
Description: as §2

[14] = target: T4, human 17βHSD1 (Homo sapiens, UniProt P14061); experiment: 17βHSD inhibition in CHO cells transfected with human 17βHSD1, E1 in supernatant; type: cell-based; parameters: expressed in transfected cells; details: 10 μmol·l^−1
T4 sequence (P14061 1-328): T1 sequence (P14061 1-328)
Protocol: (§3) For this experiment, non-cytotoxic concentrations of estrone derivative (10 μmol·l^−1) were used. E1 levels were determined by an immuno-enzymatic assay.

[15] = target: T4, human 17βHSD1; experiment: 17βHSD inhibition in MCF-7 cells transfected with human 17βHSD1, E1 in supernatant; type: cell-based; parameters: expressed in transfected cells; host or cells: MCF-7; details: 10 μmol·l^−1
Protocol: as §3

SMILES | inhibition at 0.1 µM [1] [%] | inhibition at 1 µM [1] [%] | pIC50 [1] | % of inhibition of human 17βHSD5 [2] [%] | melting point [°C] | other results
C[C@]12CC[C@@H]3c4ccc(O)cc4CC[C@H]3[C@@H]1[C@H](CCc1ccccc1)CC2=O [Compound 3, 15β-Phenethyl-3-hydroxy-estra-1,3,5(10)-trien-17-one] | 66 | 83 | 7.30 | 60 | – | ER antagonism in words [3]: ER antagonist
C[C@]12CC[C@@H]3c4ccc(O)cc4CC[C@H]3[C@@H]1[C@H](CCc1ccc(O)cc1)CC2=O [Compound 14, 15β-(4-Hydroxyphenethyl)-3-hydroxy-estra-1,3,5(10)-trien-17-one] | 72 | 97 | – | 42 | – | pIC50 [4]: 4.59; pIC50 [5]: 4.51; pIC50 [6]: 4.65; pIC50 [7]: 4.72; pIC50 [8]: 4.38; pIC50 [9]: 4.55; pIC50 [10]: 4.49; pIC50 [11]: 4.35; pIC50 [12]: ≤ 4.30; pIC50 [13]: 4.30; E1 in supernatant, CHO ([14]; 8 hr.): 3179 pg/mL; E1 in supernatant, CHO ([14]; 24 hr.): 1054 pg/mL; E1 in supernatant, MCF-7 ([15]; 8 hr.): 4298 pg/mL; E1 in supernatant, MCF-7 ([15]; 24 hr.): 2626 pg/mL
C[C@]12CC[C@@H]3c4ccc(O)cc4CC[C@H]3[C@@H]1[C@H](CCc1cc(F)c(F)c(F)c1)CC2=O [Compound 16, 15β-(3,4,5-Trifluorophenethyl)-3-hydroxy-estra-1,3,5(10)-trien-17-one] | 67 | 95 | 7.44 | 79 | 182 | –
CC(C)(C)Oc1ccc(CC[C@@H]2CC(=O)[C@@]3(C)CC[C@@H]4c5ccc(O)cc5CC[C@H]4[C@H]23)cc1 [Compound 13, 15β-(4-t-Butoxyphenethyl)-3-hydroxy-estra-1,3,5(10)-trien-17-one] | 62 | 80 | – | – | – | –
C=C[C@@H]1CC(=O)[C@@]2(C)CC[C@@H]3c4ccc(O)cc4CC[C@H]3[C@H]12 [Compound 2a, 3-Hydroxy-15β-vinyl-estra-1,3,5(10)-trien-17-one] | 79 | 95 | 7.77 | 7 | 162 | isoenzyme selectivity in words ([1]; among 17βHSD types 1, 2, 3, 4, 5, 7): inhibits exclusively the 17βHSD1 isoenzyme; estrogenic effect in words [3]: partial estrogenicity
COc1cccc(CC[C@@H]2CC(=O)[C@@]3(C)CC[C@@H]4c5ccc(O)cc5CC[C@H]4[C@H]23)c1 [Compound 10, 3-Hydroxy-15β-(3-methoxyphenethyl)-estra-1,3,5(10)-trien-17-one] | 72 | 87 | – | – | 178 | –
C[C@]12CC[C@@H]3c4ccc(O)cc4CC[C@H]3[C@@H]1[C@H](CCc1ccc(C(F)(F)F)cc1)CC2=O [Compound 4, 15β-(4-(Trifluoromethyl)phenethyl)-3-hydroxy-estra-1,3,5(10)-trien-17-one] | 68 | 91 | 7.38 | 89 | 168 | ER antagonism in words [3]: ER antagonist
COc1ccc(CC[C@@H]2CC(=O)[C@@]3(C)CC[C@@H]4c5ccc(O)cc5CC[C@H]4[C@H]23)cc1OC [Compound 11, 3-Hydroxy-15β-(3,4-dimethoxyphenethyl)-estra-1,3,5(10)-trien-17-one] | 36 | 67 | – | – | – | –
C[C@]12CC[C@@H]3c4ccc(O)cc4CC[C@H]3[C@@H]1[C@H](CCc1c(F)c(F)c(F)c(F)c1F)CC2=O [Compound 17, 15β-(2,3,4,5,6-Pentafluorophenethyl)-3-hydroxy-estra-1,3,5(10)-trien-17-one] | 56 | 90 | – | 31. | 151 | –
C[C@]12CC[C@@H]3c4ccc(O)cc4CC[C@H]3[C@@H]1[C@H](CCc1ccc3ccccc3c1)CC2=O [Compound 8, 3-Hydroxy-15β-(2-(naphtalen-2-yl)ethyl)-estra-1,3,5(10)-trien-17-one] | 77 | 92 | 7.74 | 76 | 201 | –
